These results are taken from US9409881B2, “Herbicidally active 6′-phenyl-2,2′-bipyridine-3-carboxylic acid derivatives” (BAYER CROPSCIENCE AG, priority 2012, dated 2016).

With `COC(=O)c1cccnc1-c1cccc(-c2ccc(Cl)cc2)n1` [Chemical Example 2, Methyl 6′-(4-chlorophenyl)-2,2′-bipyridine-3-carboxylate], the melting point (in general, the temperature of the solid-liquid transition) amounted to 120.5 °C.
For `O=C(O)c1cccnc1-c1cccc(-c2ccc(Cl)cc2)n1` [Chemical Example 3, 6′-(4-Chlorophenyl)-2,2′-bipyridine-3-carboxylic acid], the melting point is 221 °C.
